Assay [1] deals with human PUMP-1 (matrilysin). In words: Inhibition of human PUMP-1 (matrilysin) ([14C]-casein degradation assay). In kind it is biochemical. The following applies: 16 hours at 37° C, recombinant human PUMP-1 expressed in CHO cells. As for the experimental part: Recombinant human PUMP-1 was expressed in CHO cells and purified by heparin-agarose and Procion Red chromatography. A [^14 C]-casein degradation assay was used to measure PUMP-1 activity. […] The incubation was terminated by addition of trichloroacetic acid (final concentration 10%) and the substrate was separated from the TCA-soluble degradation products by centrifugation at 10,000 g for 15 minutes. […] The inhibitors were dissolved and diluted in DMSO. […] For weak inhibitors, the percentage inhibition (% I) at a concentration of 100 μM is given.

In the next assay the test system is collagenase. In words: Inhibition of collagenase (acetylated 14C collagen, Cawston and Barrett). In kind it is biochemical. The following applies: 37°, 16 hours, pH 7.5. The method, then:
The collagen was acetylated ^14 C collagen prepared by the method of Cawston and Murphy, (Methods in Enzymology, 80, 711, 1981), hereby incorporated by reference. The samples were centrifuged to sediment undigested collagen, and an aliquot of the radioactive supernatant removed for assay on a scintillation counter as a measure of hydrolysis. […] For weak inhibitors, the percentage inhibition (% I) at a concentration of 100 μM is given.

Where a name gives a salt, the structure may show the parent alone.

For `CCCCCCCCCCCC[C@H](CC(=O)O)C(=O)N[C@@H](Cc1ccccc1)C(=O)NC` [Comparator Example A, 3R-(1S-Methylcarbamoyl-2-phenyl-ethylcarbamoyl)-pentadecanoic acid], the “PUMP % Inhibition @ 100 μM” value in assay [1] is on record as 10 % I. The “Collagenase % Inhibition @ 100 μM” value in the assay on collagenase is on record as 30 % I.
The corresponding values for `CCCCCCCCCCCCCCCC[C@H](CC(=O)O)C(=O)N[C@@H](Cc1ccccc1)C(=O)NC` [Example 1, 3R-(1S-Methylcarbamoyl-2-phenyl-ethylcarbamoyl)nonadecanoic acid (dicyclohexylamine salt)] are 20 % I and 0 % I.
